Laboratory results as given in patent US8455443B2, “Methods of use of skin wound healing compositions” (University of Southern California, priority 2009, dated 2013).

Legend:
[1] = test system: HKC migration; assay: in vitro pro-motility (cell migration) activity of hsp90α and its fragments, FIG. 1; format: cell-based, human; conditions: for activity on cell migration: relative to full length hsp90α
Protocol: FIG. 1 contains a list of amino acid sequences that were tested for in vitro efficacy as compared to a control medium. The amino acid sequences are identified in FIG. 1 as follows:
Therefore, hsp90α promotes HKC migration mainly through its middle and the carboxyl domains, consistent with their surface location in hsp90α.
However, as can also be seen in FIG. 1, not all of the full hsp90α protein or the entire middle domain and charged portion of hsp90α protein is necessary to promote wound healing. […] Thus, the unnecessary portions of hsp90α need not be included in a composition for wound healing, thereby allowing a composition to be more efficacious per weight of active wound healing agent. Moreover, instead of relying on complicated isolation and extraction methods to obtain the hsp90α protein or the middle domain plus charged portion of hsp90α protein, more inexpensive and conventional methods of synthesis may be employed to obtain the lower chain length polypeptide chains.

[2] = test system: 1 cm×1 cm full-thickness excision wound on the back of nude mice; assay: full-thickness excision skin wound healing in nude mice, topical treatment; format: in vivo; conditions: for wound sizes: n=10 per group
Protocol: 100 μg F-3 fragments in 100 μl of 10% Carboxymethylcellulose cream and the cream alone was topically applied to the 1 cm×1 cm wound on the back of nude mice daily for 5 days, and wounds were analyzed every two days.
The pharmaceutical 100 μl of 10% carboxymethylcellulose cream (Sterile) is mixed in and the 1 cm×1 cm wound on the back of a nude mouse is topically covered. Following this treatment, the wound is covered with a few antibiotics and bandi and the bandi are fixed by rolling the mouse with coban. The F-3 compound mixture is then added every day for up to five days and the wound is analyzed every two days.
To prepare mice for topical treatment of F-3, 1.0-cm×1.0-cm full-thickness excision wounds were made by lifting the skin with forceps and removing full thickness skin with a pair of scissors on the mid-back of 8 to 10 week old mice. The wounds were topically covered by 100 μl 10% carboxymethylcellulose either without (as a control) or with 300 μg recombinant F-3 compound. The wound area was then covered with Band-Aid and Coban, a self-adherent wrap, to prevent desiccation. Only one dose of F-3 compounds was administered to the wound. To measure the wound area, standardized digital photographs were taken of the wounds at 4, 6, 8, 11, 13 and 15 days post-wounding and the open wound areas were determined with an image analyzer (AlphaEase FC version 4.1.0, Alpha Innotech Corporation). Percentage of wound area was defined by comparing areas of healing wounds to those of the original wounds. The Student T test was used for the statistical analysis. All animal studies were conducted using protocols approved by the University of Southern California Institutional Animal Use Committee.
A 1.0-cm^2 (lcm×lcm) square full-thickness excision wound was made on the mid-back of 8 to 10 week old athymic nude mice and the pharmaceutical composition of F-3 was applied topically daily for 5 days (n=10 mice per group). (A) Representative day 4, 6, 8, 11, 13 and 15 wounds are shown. […] (B) Mean±SD wound size measurements at day 4, 6, 8, 11, 13 and 15 post-wounding (n=10 mice for each group). […]

Substance | activity on cell migration [1] [%] | closure of the wounds ([2]; 100 μg in 100 μl 10% carboxymethylcellulose cream, topical, daily for 5 days, day 4, 6, 8, 11, 13, 15, vs cream control, FIGS. 2A-2F) | wound sizes ([2]; F-3 vs 40 μg PDGF-BB (Regenerex) for 5 days, day 0, 5, 7, 10, 12, FIGS. 3A-3E) | wound sizes ([2]; athymic nude mice, topical daily for 5 days, day 4, 6, 8, 11, 13, 15, vs cream alone) | pro-motility activity ([1]; in comparison to the control medium)
EEKEDKEEEKEKEEKESEDKPEIEDVGSDEEEEKKDGDKKKKKKIKEKYIDQEE (listed as Homo sapiens) [F-5, hsp90α fragment having 54 amino acid units from amino acid number 236 to 289] | ~100 | – | – | – | –
F-3: fragment of hsp90α consisting of 115 amino acid units, from amino acid number 236 to 350 | ~100 | significantly accelerated closure of the wounds | significantly reduced | significantly reduced | –
WT hsp90α: the full-length (WT) hsp90α protein | 100 | – | – | – | remarkable pro-motility activity
